Reference: the NIST ThermoML archive (doi:10.1021/je060271a)
“And” between values parts separate entries of the source, which are not always exact repeats. Equal entries are not always repeated.

Conditions: Liquid, Vibrating tube method

CCCCCCC(=O)OCC(COC(=O)CCCCCC)(COC(=O)CCCCCC)COC(=O)CCCCCC [pentaerythritol tetraheptanoate]
Conditions | mass density
303.15 K, 31425 kPa | 989 kg/m3
303.15 K, 31458 kPa | 989.1 kg/m3
303.15 K, 31487 kPa | 989.1 kg/m3
303.15 K, 31515 kPa | 989 kg/m3
303.15 K, 31543 kPa | 989.1 kg/m3
303.15 K, 31577 kPa | 989.1 kg/m3
303.15 K, 31605 kPa | 989 kg/m3
303.15 K, 31639 kPa | 989.1 kg/m3
303.15 K, 31667 kPa | 989.1 kg/m3
303.15 K, 31696 kPa | 989.1 kg/m3
303.15 K, 31724 kPa | 989.2 kg/m3
303.15 K, 31759 kPa | 989.2 kg/m3
303.15 K, 31788 kPa | 989.2 kg/m3
303.15 K, 31817 kPa | 989.3 kg/m3
303.15 K, 31846 kPa | 989.3 kg/m3
303.15 K, 31880 kPa | 989.3 kg/m3
303.15 K, 31909 kPa | 989.3 kg/m3
303.15 K, 31938 kPa | 989.3 kg/m3
303.15 K, 31973 kPa | 989.4 kg/m3
303.15 K, 32002 kPa | 989.3 kg/m3
303.15 K, 32036 kPa | 989.4 kg/m3
303.15 K, 32065 kPa | 989.4 kg/m3
303.15 K, 32094 kPa | 989.3 kg/m3
303.15 K, 32128 kPa | 989.5 kg/m3
303.15 K, 32158 kPa | 989.4 kg/m3
303.15 K, 32186 kPa | 989.4 kg/m3
303.15 K, 32221 kPa | 989.4 kg/m3
303.15 K, 32250 kPa | 989.5 kg/m3
303.15 K, 32280 kPa | 989.5 kg/m3
303.15 K, 32316 kPa | 989.5 kg/m3
303.15 K, 32345 kPa | 989.5 kg/m3
303.15 K, 32375 kPa | 989.4 kg/m3
303.15 K, 32405 kPa | 989.5 kg/m3
303.15 K, 32440 kPa | 989.6 kg/m3
303.15 K, 32470 kPa | 989.6 kg/m3
303.15 K, 32500 kPa | 989.5 kg/m3
303.15 K, 32536 kPa | 989.7 kg/m3
303.15 K, 32566 kPa | 989.6 kg/m3
303.15 K, 32602 kPa | 989.7 kg/m3
303.15 K, 32632 kPa | 989.6 kg/m3
303.15 K, 32661 kPa | 989.6 kg/m3
303.15 K, 32691 kPa | 989.7 kg/m3
303.15 K, 32727 kPa | 989.7 kg/m3
303.15 K, 32757 kPa | 989.6 kg/m3
303.15 K, 32787 kPa | 989.8 kg/m3
303.15 K, 32824 kPa | 989.8 kg/m3
303.15 K, 32854 kPa | 989.8 kg/m3
303.15 K, 32890 kPa | 989.8 kg/m3
303.15 K, 32920 kPa | 989.7 kg/m3
303.15 K, 32951 kPa | 989.7 kg/m3
303.15 K, 32984 kPa | 989.9 kg/m3
303.15 K, 33014 kPa | 989.7 kg/m3
303.15 K, 33051 kPa | 989.9 kg/m3
303.15 K, 33082 kPa | 990 kg/m3
303.15 K, 33112 kPa | 989.9 kg/m3
303.15 K, 33149 kPa | 990 kg/m3
303.15 K, 33180 kPa | 990 kg/m3
303.15 K, 33217 kPa | 990 kg/m3
303.15 K, 33248 kPa | 989.9 kg/m3
303.15 K, 33279 kPa | 990.1 kg/m3
303.15 K, 33317 kPa | 990 kg/m3
303.15 K, 33348 kPa | 990 kg/m3
303.15 K, 33381 kPa | 990 kg/m3
303.15 K, 33413 kPa | 990 kg/m3
303.15 K, 33450 kPa | 990.1 kg/m3
303.15 K, 33482 kPa | 990 kg/m3
303.15 K, 33514 kPa | 990.2 kg/m3
303.15 K, 33546 kPa | 990.1 kg/m3
303.15 K, 33584 kPa | 990.1 kg/m3
303.15 K, 33616 kPa | 990.2 kg/m3
303.15 K, 33648 kPa | 990.2 kg/m3
303.15 K, 33686 kPa | 990.2 kg/m3
303.15 K, 33718 kPa | 990.2 kg/m3
303.15 K, 33756 kPa | 990.2 kg/m3
303.15 K, 33788 kPa | 990.2 kg/m3
303.15 K, 33820 kPa | 990.3 kg/m3
303.15 K, 33852 kPa | 990.3 kg/m3
303.15 K, 33890 kPa | 990.4 kg/m3
303.15 K, 33921 kPa | 990.4 kg/m3
303.15 K, 33952 kPa | 990.5 kg/m3
303.15 K, 33993 kPa | 990.4 kg/m3
303.15 K, 34038 kPa | 990.4 kg/m3
303.15 K, 34093 kPa | 990.4 kg/m3
303.15 K, 34123 kPa | 990.4 kg/m3
303.15 K, 34208 kPa | 990.5 kg/m3
303.15 K, 34249 kPa | 990.5 kg/m3
303.15 K, 34280 kPa | 990.6 kg/m3
303.15 K, 34305 kPa | 990.5 kg/m3
303.15 K, 34336 kPa | 990.6 kg/m3
303.15 K, 34363 kPa | 990.5 kg/m3
303.15 K, 34390 kPa | 990.7 kg/m3
303.15 K, 34423 kPa | 990.6 kg/m3
303.15 K, 34452 kPa | 990.7 kg/m3
303.15 K, 34482 kPa | 990.6 kg/m3
303.15 K, 34512 kPa | 990.7 kg/m3
303.15 K, 34545 kPa | 990.6 kg/m3
303.15 K, 34553 kPa | 990.8 kg/m3
303.15 K, 34554 kPa | 990.7 kg/m3
303.15 K, 34556 kPa | 990.7 kg/m3
323.14 K, 99.4 kPa | 955.6 kg/m3 and 955.7 kg/m3
323.14 K, 99.5 kPa | 955.7 kg/m3 and 955.6 kg/m3
323.14 K, 99.7 kPa | 955.7 kg/m3 [middle of 4 runs]
323.14 K, 99.9 kPa | 955.7 kg/m3 [middle of 4 runs]
323.14 K, 100 kPa | 955.7 kg/m3 and 955.8 kg/m3 and 955.6 kg/m3
323.14 K, 100.1 kPa | 955.7 kg/m3
323.14 K, 100.2 kPa | 955.6 kg/m3 and 955.7 kg/m3
323.14 K, 100.4 kPa | 955.7 kg/m3
323.14 K, 101.1 kPa | 955.6 kg/m3
323.14 K, 135.4 kPa | 955.7 kg/m3
323.14 K, 135.5 kPa | 955.7 kg/m3
323.14 K, 137.4 kPa | 955.7 kg/m3
